According to US20150209379A1, “TREATMENT OF PROSTATE CANCER AND HEMATOLOGIC NEOPLASMS” (THOMAS JEFFERSON UNIVERSITY, priority 2012, published 2015):

Target: T1, Stat5a (Homo sapiens, UniProt P42229)
T1 sequence (P42229 1-794): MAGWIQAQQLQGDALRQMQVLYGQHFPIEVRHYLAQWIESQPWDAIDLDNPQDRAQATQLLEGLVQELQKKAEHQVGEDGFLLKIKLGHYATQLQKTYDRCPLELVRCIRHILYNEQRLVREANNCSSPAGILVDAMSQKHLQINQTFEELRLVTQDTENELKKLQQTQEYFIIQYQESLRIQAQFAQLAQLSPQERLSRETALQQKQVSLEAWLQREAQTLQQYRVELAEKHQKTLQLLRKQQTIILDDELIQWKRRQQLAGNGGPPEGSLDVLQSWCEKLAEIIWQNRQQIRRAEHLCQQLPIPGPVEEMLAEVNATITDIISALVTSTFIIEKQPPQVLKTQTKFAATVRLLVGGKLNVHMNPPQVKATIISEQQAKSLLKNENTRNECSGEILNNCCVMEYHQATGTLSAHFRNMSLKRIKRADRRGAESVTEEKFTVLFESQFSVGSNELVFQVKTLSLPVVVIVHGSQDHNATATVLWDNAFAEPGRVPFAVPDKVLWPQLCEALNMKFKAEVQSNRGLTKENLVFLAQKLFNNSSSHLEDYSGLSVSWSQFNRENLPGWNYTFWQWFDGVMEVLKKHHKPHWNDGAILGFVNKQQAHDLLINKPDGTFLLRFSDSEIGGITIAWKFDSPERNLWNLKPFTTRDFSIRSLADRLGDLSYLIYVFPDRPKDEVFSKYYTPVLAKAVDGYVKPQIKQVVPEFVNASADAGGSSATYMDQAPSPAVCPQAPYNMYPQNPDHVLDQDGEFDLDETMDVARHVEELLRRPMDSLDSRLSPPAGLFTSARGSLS
Assay: Stat5a transcriptional activity, beta-casein promoter luciferase reporter gene assay in PC-3 cells
Assay type: cell-based
Set-up: expressed in transfected cells; host or cells: PC-3 human prostate cancer cells
Details: 1 hour pretreatment, then 10 nM hPrl 16 hours
Experimental: Cells of the human prostate cell line PC-3 were plated into 96-well plate at the density of 2×10^5 per well. After 24 hours of plating, cells were transiently co-transfected using FuGENE6 (Roche) with 0.25 μg of each of pStat5a, pPrlR (prolactin receptor) plasmids, 0.5 μg of pBeta-casein-luc and 0.025 μg of pRL-TK (Renilla luciferase) plasmids as an internal control. After another 24 hours of transfection, the cells were starved in serum-free medium for 8 hours, pretreated with (2R,3R,4S,5R)-2-(6-(3,4-dihydroisoquinolin-2(1H)-yl)-9H-purin-9-yl)-5-(hydroxymethyl)tetrahydrofuran-3,4-diol (Compound 1) or (2R,3S,4R,5R)-2-(hydroxymethyl)-5-(6-(2-phenylhydrazinyl)-9H-purin-9-yl)tetrahydrofuran-3,4-diol (Compound 2), for 1 hour, and then stimulated with 10 nM human prolactin (hPrl) in the serum-free medium for additional 16 hours. The lysates were assayed for firefly and Renilla luciferase activities using the Dual-Luciferase reporter assay system (Promega). The firefly luciferase activity was normalized to the Renilla luciferase activity of the same sample, and the mean was calculated from the parallels. From the mean values of each independent run, the overall mean and its standard deviation (S.D.) were calculated.
(§1) Cells of the human prostate cell line PC-3 were plated into 96-well plate at the density of 2×10^5 per well. […] The firefly luciferase activity was normalized to the Renilla luciferase activity of the same sample, and the mean was calculated from the parallels. From the mean values of each independent run, the overall mean and its standard deviation (S.D.) were calculated.
as §1

SMILES | effect on transcriptional activity of Stat5a
OC[C@H]1O[C@@H](n2cnc3c(N4CCc5ccccc5C4)ncnc32)[C@H](O)[C@@H]1O [Compound 1, (2R,3R,4S,5R)-2-(6-(3,4-Dihydroisoquinolin-2(1H)-yl)-9H-purin-9-yl)-5-(hydroxymethyl)tetrahydrofuran-3,4-diol] | effectively block the transcriptional activity of Stat5a
OC[C@H]1O[C@@H](n2cnc3c(NNc4ccccc4)ncnc32)[C@H](O)[C@@H]1O [Compound 2, (2R,3S,4R,5R)-2-(hydroxymethyl)-5-(6-(2-phenylhydrazinyl)-9H-purin-9-yl)tetrahydrofuran-3,4-diol] | effectively block the transcriptional activity of Stat5a
OC[C@H]1O[C@@H](n2cnc3c(NCc4ccccc4)ncnc32)[C@H](O)[C@@H]1O [Compound N6BA, N^6-benzyladenosine] | inhibits transcriptional activity of Stat5
